From patent publication US20230151025A1, “SUBSTITUTED THIAZOLOPYRIDINES, SALTS THEREOF AND THEIR USE AS HERBICIDALLY ACTIVE SUBSTANCES” (Bayer Aktiengesellschaft, priority 2020, published 2023)

What was measured:
Format in all cases: in vivo
[1] = test system: Alopecurus myosuroides (ALOMY); assay: Herbicidal pre-emergence action (C), 320 g/ha; conditions: ca. 3 weeks
Outline: (§1)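 Pre-emergence greenhouse test: visual damage rating at about 3 weeks relative to untreated plants, 100% meaning death and 0% no effect. Compounds, as wettable powders or emulsifiable concentrates with 0.5% additive, were applied at 320 g/ha (600 l water/ha) onto soil covering seeds sown in sandy loam.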

[2] = test system: Abutilon theophrasti (ABUTH); assay: Herbicidal pre-emergence action (C), 320 g/ha; conditions: ca. 3 weeks
Outline: as §1

[3] = test system: Amaranthus retroflexus (AMARE); assay: Herbicidal pre-emergence action (C), 320 g/ha; conditions: ca. 3 weeks
Outline: as §1

Stellaria media (STEME) [4] = assay: Herbicidal pre-emergence action (C), 320 g/ha; conditions: visual grading after ca. 3 weeks vs untreated controls, 100% = plants have died off, 0% = as control plants
Outline: as §1

Setaria viridis (SETVI) [5] = assay: Herbicidal pre-emergence action (C), 320 g/ha; conditions: ca. 3 weeks
Outline: as §1

Veronica persica (VERPE) [6] = assay: Herbicidal pre-emergence action (C), 320 g/ha; conditions: ca. 3 weeks
Outline: as §1

Lolium rigidum (LOLRI) [7] = assay: Herbicidal pre-emergence action (C), 320 g/ha; conditions: ca. 3 weeks
Outline: as §1

Viola tricolor (VIOTR) [8] = assay: Herbicidal pre-emergence action (C), 320 g/ha; conditions: ca. 3 weeks
Outline: as §1

[9] = test system: Polygonum convolvulus (POLCO); assay: Herbicidal pre-emergence action (C), 320 g/ha; conditions: ca. 3 weeks
Outline: as §1

[10] = test system: Matricaria inodora (MATIN); assay: Herbicidal pre-emergence action (C), 320 g/ha; conditions: ca. 3 weeks
Outline: as §1

[11] = test system: Echinochloa crus-galli (ECHCG); assay: Herbicidal pre-emergence action (C), 320 g/ha; conditions: ca. 3 weeks
Outline: as §1

Avena fatua [12] = assay: Herbicidal post-emergence action (D), 320 g/ha; conditions: ca. 3 weeks
Source text: (§2) Seeds of mono- and dicotyledonous weed plants and crop plants were sown, in plastic or organic planting pots, in sandy loam, covered with soil and grown in a greenhouse under controlled growth conditions. 2 to 3 weeks after sowing, the test plants were sprayed in the single-leaf stage. The compounds according to the invention, formulated in form of wettable powders (WP) or as emulsifiable concentrates (EC), were sprayed onto the green plant parts as aqueous suspension or emulsion, with the addition of 0.5% of an additive, at an application rate of 600 l of water/ha (converted). The test plants were placed in the greenhouse for ca. 3 weeks under optimum growth conditions, and then the effect of the preparations was assessed visually in comparison with untreated controls (herbicidal effect in percent (%): 100% effect=plants have died off, 0% effect=as control plants).
(§3) Tables D1 to D13 below show the effects of selected compounds of the general formula (I) according to table 1 on various harmful plants and an application rate corresponding to 320 g/ha obtained by the experimental procedure mentioned above.

[13] = test system: Digitaria sanguinalis (DIGSA); assay: Herbicidal post-emergence action (D), 320 g/ha; conditions: ca. 3 weeks
Source text: as §2, §3

[14] = test system: Alopecurus myosuroides (ALOMY); assay: Herbicidal post-emergence action (D), 320 g/ha; conditions: ca. 3 weeks
Outline: (§4)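 Visual % herbicidal effect vs untreated controls (100% = dead, 0% = like control), rated ca. 3 weeks after post-emergence spray. Plants treated at single-leaf stage, 2 to 3 weeks after sowing in sandy loam; aqueous WP/EC spray, 0.5% additive, 600 l water/ha.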

[15] = test system: Abutilon theophrasti (ABUTH); assay: Herbicidal post-emergence action (D), 320 g/ha; conditions: ca. 3 weeks
Outline: as §4

[16] = test system: Amaranthus retroflexus (AMARE); assay: Herbicidal post-emergence action (D), 320 g/ha; conditions: ca. 3 weeks
Outline: as §4

Stellaria media (STEME) [17] = assay: Herbicidal post-emergence action (D), 320 g/ha; conditions: ca. 3 weeks
Outline: as §4

Setaria viridis (SETVI) [18] = assay: Herbicidal post-emergence action (D), 320 g/ha; conditions: ca. 3 weeks
Outline: as §4

Veronica persica (VERPE) [19] = assay: Herbicidal post-emergence action (D), 320 g/ha; conditions: ca. 3 weeks
Outline: as §4

Lolium rigidum (LOLRI) [20] = assay: Herbicidal post-emergence action (D), 320 g/ha; conditions: ca. 3 weeks
Outline: as §4

Viola tricolor (VIOTR) [21] = assay: Herbicidal post-emergence action (D), 320 g/ha; conditions: ca. 3 weeks
Outline: as §4

[22] = test system: Polygonum convolvulus (POLCO); assay: Herbicidal post-emergence action (D), 320 g/ha; conditions: ca. 3 weeks
Outline: as §4

[23] = test system: Matricaria inodora (MATIN); assay: Herbicidal post-emergence action (D), 320 g/ha; conditions: single-leaf stage, assessed visually after ca. 3 weeks vs untreated controls, 100% = plants have died off, 0% = as control plants
Outline: as §4

[24] = test system: Echinochloa crus-galli (ECHCG); assay: Herbicidal post-emergence action (D), 320 g/ha; conditions: ca. 3 weeks
Outline: as §4

Avena fatua [25] = assay: Herbicidal pre-emergence action (C), 320 g/ha; conditions: ca. 3 weeks
Source text: (§5) Seeds of mono- and dicotyledonous weed plants and crop plants were sown, in plastic or organic planting pots, in sandy loam and covered with soil. The compounds according to the invention, formulated in the form of wettable powders (WP) or as emulsifiable concentrates (EC), were applied to the surface of the covering soil as aqueous suspension or emulsion, with the addition of 0.5% of an additive, at an application rate of 600 l of water/ha (converted).
(§6) Following treatment, the pots were placed in a greenhouse and kept under optimum growth conditions for the test plants. The visual grading of the damage to the test plants was carried out after ca. 3 weeks in comparison to untreated controls (herbicidal effect in percent (%): 100% effect=plants have died off, 0% effect=as control plants).
(§7) Tables C1 to C13 below show the effects of selected compounds of the general formula (I) according to table 1 on various harmful plants and an application rate corresponding to 320 g/ha obtained by the experimental procedure mentioned above.

[26] = test system: Digitaria sanguinalis (DIGSA); assay: Herbicidal pre-emergence action (C), 320 g/ha; conditions: ca. 3 weeks
Source text: as §5, §6, §7

Structure (SMILES)	herbicidal effect ALOMY [1] [%]	herbicidal effect ABUTH [2] [%]	herbicidal effect AMARE [3] [%]	herbicidal effect SETVI (Setaria viridis (SETVI) [5]) [%]	herbicidal effect VERPE (Veronica persica (VERPE) [6]) [%]	herbicidal effect LOLRI (Lolium rigidum (LOLRI) [7]) [%]	herbicidal effect POLCO [9] [%]	herbicidal effect MATIN [10] [%]	herbicidal effect ECHCG [11] [%]	herbicidal effect DIGSA [13] [%]	herbicidal effect ALOMY [14] [%]	herbicidal effect AMARE [16] [%]	herbicidal effect SETVI (Setaria viridis (SETVI) [18]) [%]	herbicidal effect VERPE (Veronica persica (VERPE) [19]) [%]	herbicidal effect VIOTR (Viola tricolor (VIOTR) [21]) [%]	herbicidal effect POLCO [22] [%]	herbicidal effect DIGSA [26] [%]	further results
Cc1cc2scnc2nc1-c1ccccc1F [Example I-002]	100	90	90	100	90	100	90	90	100	90	90	90	90	80	80	90	100	STEME, herbicidal effect in percent (%) (Stellaria media (STEME) [4]): 90%; herbicidal effect VIOTR (Viola tricolor (VIOTR) [8]): 80%; herbicidal effect AVEFA (Avena fatua [12]): 80%; herbicidal effect ABUTH [15]: 80%; herbicidal effect STEME (Stellaria media (STEME) [17]): 90%; herbicidal effect LOLRI (Lolium rigidum (LOLRI) [20]): 80%; MATIN, herbicidal effect in percent (%) [23]: 80%; herbicidal effect ECHCG [24]: 100%; herbicidal effect AVEFA (Avena fatua [25]): 100%
Cc1ccccc1-c1nc2ncsc2cc1C [Example I-018]	100	80	90	100	90	100	90	90	100	90	90	90	80	80	90	100	100	–
